ChEMBL document CHEMBL1132582, “Bicyclic tripeptide mimetics with reverse turn inducing properties” (J Med Chem, 1999)

Assays:
[1] = target: T1, Angiotensin II receptor (AT-1) type-1 (Rattus norvegicus, UniProt P29089+P25095); assay: Compound was evaluated in a radioligand binding assay to displace [125I]-Ang II from Angiotensin II receptor, type 1 in rat liver membranes; format: cell membranes, Membrane
T1 sequence (P29089 whole entry): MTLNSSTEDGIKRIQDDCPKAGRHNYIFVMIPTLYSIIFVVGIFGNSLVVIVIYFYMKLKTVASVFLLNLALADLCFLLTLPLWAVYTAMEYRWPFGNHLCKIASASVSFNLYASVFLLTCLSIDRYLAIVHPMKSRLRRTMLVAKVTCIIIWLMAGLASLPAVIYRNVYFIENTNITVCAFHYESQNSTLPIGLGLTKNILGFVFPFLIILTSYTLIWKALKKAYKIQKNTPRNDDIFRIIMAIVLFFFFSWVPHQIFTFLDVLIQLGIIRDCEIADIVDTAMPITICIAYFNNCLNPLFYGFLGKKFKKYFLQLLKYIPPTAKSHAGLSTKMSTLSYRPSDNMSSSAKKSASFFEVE
T1 sequence (P25095 whole entry): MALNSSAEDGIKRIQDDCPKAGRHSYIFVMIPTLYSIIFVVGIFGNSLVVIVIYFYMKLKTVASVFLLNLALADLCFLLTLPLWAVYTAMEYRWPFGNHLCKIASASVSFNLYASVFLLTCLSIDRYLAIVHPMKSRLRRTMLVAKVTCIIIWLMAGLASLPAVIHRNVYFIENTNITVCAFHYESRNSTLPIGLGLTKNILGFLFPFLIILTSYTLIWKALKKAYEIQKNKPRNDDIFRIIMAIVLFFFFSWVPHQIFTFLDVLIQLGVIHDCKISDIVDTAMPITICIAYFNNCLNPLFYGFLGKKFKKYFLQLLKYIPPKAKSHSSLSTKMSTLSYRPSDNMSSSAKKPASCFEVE

[2] = target: T1, Angiotensin II receptor (AT-1) type-1; assay: Compound was evaluated in a binding assay using Chinese hamster ovary (CHO) cells stably expressing the rat Angiotensin II receptor, type 1; format: cell-based

IC50 [1]: >= 10 uM | IC50 [2]: >= 10 uM
SMILES: NC(N)=NCCC[C@H](NC(=O)[C@@H](N)CC(=O)O)C(=O)N[C@H]1C[C@H]2SC[C@@H](C(=O)N[C@@H](Cc3c[nH]cn3)C(=O)N3CCC[C@H]3C(=O)N[C@@H](Cc3ccccc3)C(=O)O)NC(=O)[C@H](Cc3ccc(O)cc3)N2C1=O
